These results are taken from US4399139A, “5,6-Dihydro-11-alkylene-morphanthridin-6-ones, their pharmaceutical compositions and method of use” (BASF Aktiengesellschaft, priority 1981, dated 1983).

The nature of data set [1]: Anti-cholinergic side-effect: mydriasis (pupil diameter) in the rat. Format: in vivo, Sprague-Dawley rats. The conditions noted are these: in vivo, sc, subcutaneously, ratio of mydriatic to secretion-inhibiting dose, read-out: Mydriatic action, ED 2 mm / ED 0.75. The procedure: (§1) To determine anti-cholinergic side-effects (mydriasis, inhibition of salivation), groups of from 5 to 10 female Sprague-Dawley rats (160-200 g) are given the test substance subcutaneously. After 1 hour, the pupil diameter is measured. The animals are then given 0.6 mg/kg of carbachol intraperitoneally. After 5 minutes, the saliva secreted as a result of stimulation by carbachol is blotted up with 4 cm wide strips of universal indicator paper (from Merck). The surface area of the paper colored blue by the alkaline saliva serves as a measure of the salivary secretion. The test substance is taken to inhibit salivary secretion if the blue area of the paper is more than 50% smaller than in the case of the controls. Evaluation of the linear relationships between the logarithms of the dose and the frequency of inhibition of salivation is carried out alternatively by Probit analysis. The ED 50 is taken to be the dose at which the relative frequency of inhibition of salivation is 50%.
(§2) If there is a mydriatic effect, there is a linear regression between the logarithm of the dose and the increase in pupil diameter in mm, from which the ED 2 mm, ie. the dose which increases the pupil diameter by 2 mm, is calculated.

In data set [2] the test system is pupil diameter. The data set is described as above. Conditions: administered subcutaneously, 1 hour, dose which increases the pupil diameter by 2 mm. Format: in vivo, Sprague-Dawley rats. The procedure:
as §1, §2

The test system of data set [3] is gastric acid secretion. Conditions: for ED (pH increase of 0.75): Rattus norvegicus, sc, 1 h, read-out: Inhibition of gastric acid secretion, ED 0.75; for Inhibition of gastric acid secretion, R.E. (relative effectiveness): rat, subcutaneously, relative to pirenzepine = 1.0.
Procedure: The inhibition of gastric acid secretion manifests itself in a rise in the pH of the gastric mucosa. It is tested on groups of 5 conscious female Sprague-Dawley rats (160-180 g). The animals are kept without food (but with water ad libitum) for 48 hours and are then pretreated with varying doses of the test substances, administered subcutaneously. After 1 hour, they are narcotized with Na hexobarbital (46.4 mg/kg, given intravenously). A pH electrode (Philips Special Electrode, type CJP) is then introduced into the stomach and the pH at the surface of the gastric mucosa is measured (pH in the untreated animals is 1.40±0.02; N=200). The ED 0.75, ie. the dose which causes an increase in pH averaging 0.75, compared to the pH in the untreated control animals, is determined from the linear regression between logarithm of administered dose and increase in pH.
The subject of data set [4] is ulcerous lesions. As to the kind of experiment: Anti-ulcerogenic effect in the rat (reserpine/indomethacin/cold induced ulcers). Format: in vivo, Sprague-Dawley rats. The conditions noted are these: for Anti-ulcerogenic effect, R.E. (relative effectiveness): orally, relative to pirenzepine = 1.0; for ED50: po, 6 h, administered orally, dose which reduces the ulcerated surface area by 50%, read-out: Anti-ulcerogenic effect, ED 50%. The procedure:
To examine the anti-ulcerogenic effect, groups of 10 female Sprague-Dawley rats (weighing 160-180 g) are given 1 mg/kg of reserpine intraperitoneally, and are then left for 18 hours without food (but with water ad libitum). After this time, the animals are given 21.5 mg/kg of indomethacin intraperitoneally and the test substance orally; they are then kept for 6 hours at 8° C., after which they are killed. The stomachs are removed and the surface area of ulcerous lesions is determined.

Data set [5] is described as follows: Anti-cholinergic side-effect: inhibition of carbachol-stimulated salivation in the rat. Details: species or system Sprague-Dawley rats. Conditions: in vivo, sc; for ED50 at 1 h: administered subcutaneously, carbachol 0.6 mg/kg intraperitoneally after 1 hour, read-out: Salivation-inhibiting action, ED 50; for selectivity ratio: subcutaneously, ratio of salivation-inhibiting to secretion-inhibiting dose, read-out: Salivation-inhibiting action, ED 50/ED 0.75. Here is the method:
as §1, with “After” for “To determine anti-cholinergic side-effects (mydriasis, inhibition of salivation), groups of from 5 to 10 female Sprague-Dawley rats (160-200 g) are given the test substance subcutaneously. After”, “analysis.” for “analysis. The ED 50 is taken to be the dose at which the relative frequency of inhibition of salivation is 50%.”

For the molecule `CN1CCN(C(=O)/C=C2/c3ccccc3NC(=O)c3ccccc32)CC1` [Example 1 cis, cis-11-(4-methyl-piperazin-1-yl)-carboxamidomethylene-5,6-dihydro-morphanthridin-6-one], the selectivity ratio in data set [1] was found to be 6200. Further, the “Mydriatic action, ED 2 mm” value in data set [2] was 198 mg/kg. Further, in data set [3], the ED (pH increase of 0.75) was 0.032 mg/kg and the “Inhibition of gastric acid secretion, R.E. (relative effectiveness)” value stood at 2.7. For the same molecule, in data set [4], the “Anti-ulcerogenic effect, R.E. (relative effectiveness)” value is listed as 3.8 and the ED50 stood at 1.7 mg/kg. Further, in data set [5], the ED50 at 1 h turned out to be 50 mg/kg and the selectivity ratio was determined as 1600.
With `CN1CCN(C(=O)C=C2c3ccccc3NC(=O)c3ccccc32)CC1` (mixture of isomers) [Example 1 cis/trans, cis,trans-11-(4-methyl-piperazin-1-yl)-carboxamidomethylene-5,6-dihydromorphanthridin-6-one], the selectivity ratio in data set [1] is > 3900. In addition, the “Mydriatic action, ED 2 mm” value in data set [2] is given as > 215 mg/kg. Further, in data set [3], the ED (pH increase of 0.75) is 0.055 mg/kg and the “Inhibition of gastric acid secretion, R.E. (relative effectiveness)” value is on record as > 1.6. Moreover, in data set [4], the “Anti-ulcerogenic effect, R.E. (relative effectiveness)” value is listed as 3.1 and the ED50 stood at 2.1 mg/kg. Also, in data set [5], the ED50 at 1 h came out at 99 mg/kg and the selectivity ratio is 1800.
Take `CN1CCN(CC(=O)N2c3ccccc3C(=O)Nc3cccnc32)CC1` [Pirenzepine, 5,11-dihydro-11-[(4-methyl-piperazin-1-yl)-acethyl]-6H-pyrido-[2,3,b][1,4]-benzodiazepin-6-one, reference compound]: in data set [2], the “Mydriatic action, ED 2 mm” value came out at 1.6 mg/kg. In addition, the ED (pH increase of 0.75) in data set [3] came to 0.086 mg/kg. The ED50 in data set [4] turned out to be 6.5 mg/kg. Moreover, the ED50 at 1 h in data set [5] worked out at 2 mg/kg.
